Experiments:
Format in all cases: in vivo
[1] = system: Bemisia tabaci (Cotton White Fly); experiment: Activity against Bemisia tabaci: feeding/contact activity; conditions: foliar, 144 h, application rate of 200 ppm, cotton leaf discs, adult white flies, 6 days after incubation
Protocol: Example B1: Activity Against Bemisia tabaci (Cotton White Fly): Feeding/Contact Activity
Cotton leaf discs were placed on agar in 24-well microtiter plates and sprayed with aqueous test solutions prepared from 10,000 ppm DMSO stock solutions. After drying the leaf discs were infested with adult white flies. The samples were checked for mortality 6 days after incubation.

[2] = system: Diabrotica balteata (Corn Root Worm); experiment: Activity against Diabrotica balteata; conditions: 96 h, application rate of 200 ppm, maize sprouts, L2 larvae, 4 days after infestation, read-out: effect in at least one of the two categories (mortality or growth inhibition)
Protocol: Example B2: Activity Against Diabrotica balteata (Corn Root Worm)
Maize sprouts placed onto an agar layer in 24-well microtiter plates were treated with aqueous test solutions prepared from 10,000 ppm DMSO stock solutions by spraying. After drying, the plates were infested with L2 larvae (6 to 10 per well). The samples were assessed for mortality and growth inhibition in comparison to untreated samples 4 days after infestation.

[3] = system: Euschistus heros (Neotropical Brown Stink Bug); experiment: Activity against Euschistus heros; conditions: 120 h, application rate of 200 ppm, soybean leaves, N2 nymphs, 5 days after infestation, read-out: effect in at least one of the two categories (mortality or growth inhibition)
Protocol: Example B3: Activity Against Euschistus heros (Neotropical Brown Stink Bug)
Soybean leaves on agar in 24-well microtiter plates were sprayed with aqueous test solutions prepared from 10,000 ppm DMSO stock solutions. After drying the leaves were infested with N2 nymphs. The samples were assessed for mortality and growth inhibition in comparison to untreated samples 5 days after infestation.

[4] = system: Myzus persicae (Green Peach Aphid); experiment: Activity against Myzus persicae: feeding/contact activity; conditions: foliar, 144 h, application rate of 200 ppm, sunflower leaf discs, aphid population of mixed ages, 6 days after infestation, read-out: mortality
Protocol: Example B5: Activity Against Myzus persicae (Green Peach Aphid): Feeding/Contact Activity
Sunflower leaf discs were placed onto agar in a 24-well microtiter plate and sprayed with aqueous test solutions prepared from 10,000 ppm DMSO stock solutions. After drying, the leaf discs were infested with an aphid population of mixed ages. The samples were assessed for mortality 6 days after infestation.

[5] = system: Myzus persicae (Green Peach Aphid); experiment: Activity against Myzus persicae: systemic activity; conditions: 144 h, test rate of 24 ppm, roots of infested pea seedlings in test solution, 6 days, read-out: mortality
Protocol: Example B6: Activity Against Myzus persicae (Green Peach Aphid). Systemic Activity
Roots of pea seedlings infested with an aphid population of mixed ages were placed directly into aqueous test solutions prepared from 10,000 DMSO stock solutions. The samples were assessed for mortality 6 days after placing seedlings into test solutions.

[6] = system: Plutella xylostella (Diamond Back Moth); experiment: Activity against Plutella xylostella; conditions: 120 h, application rate of 200 ppm, artificial diet, L2 larvae, 5 days after infestation, read-out: effect in at least one of the two categories (mortality or growth inhibition)
Protocol: Example B8: Activity Against Plutella xylostella (Diamond Back Moth)
24-well microtiter plates with artificial diet were treated with aqueous test solutions prepared from 10,000 ppm DMSO stock solutions by pipetting. After drying, the plates were infested with L2 larvae (10 to 15 per well). The samples were assessed for mortality and growth inhibition in comparison to untreated samples 5 days after infestation.

[7] = system: Spodoptera littoralis (Egyptian Cotton Leaf Worm); experiment: Activity against Spodoptera littoralis (cotton leaf discs, spray); conditions: foliar, 72 h, application rate of 200 ppm, cotton leaf discs, L1 larvae, 3 days after infestation, read-out: control (mortality, anti-feeding effect, growth inhibition)
[8] = system: Spodoptera littoralis (Egyptian Cotton Leaf Worm); experiment: Activity against Spodoptera littoralis (lettuce, uptake by the roots from agar); conditions: 144 h, test rate of 12.5 ppm, lettuce grown on treated agar, Spodoptera eggs, 6 days after infestation, read-out: effect in at least one of the three categories (mortality, anti-feeding, or growth inhibition)
[9] = system: Thrips tabaci (Onion Thrips); experiment: Activity against Thrips tabaci: feeding/contact activity; conditions: foliar, 144 h, application rate of 200 ppm, sunflower leaf discs, thrips population of mixed ages, 6 days after infestation
Protocol: Example B12: Activity Against Thrips tabaci (Onion Thrips) Feeding/Contact Activity
Sunflower leaf discs were placed on agar in 24-well microtiter plates and sprayed with aqueous test solutions prepared from 10,000 ppm DMSO stock solutions. After drying the leaf discs were infested with a thrips population of mixed ages. The samples were assessed for mortality 6 days after infestation.

[10] = system: Myzus persicae (Green Peach Aphid); experiment: Activity against Myzus persicae: intrinsic activity; conditions: 120 h, test rate of 12 ppm, sucrose solution under Parafilm, 5 days after infestation, read-out: mortality
Source text: Example B7: Activity Against Myzus persicae (Green Peach Aphid). Intrinsic Activity
Test compounds prepared from 10,000 ppm DMSO stock solutions were applied by pipette into 24-well microtiter plates and mixed with sucrose solution. The plates were closed with a stretched Parafilm. A plastic stencil with 24 holes was placed onto the plate and infested pea seedlings were placed directly on the Parafilm. The infested plate was closed with a gel blotting paper and another plastic stencil and then turned upside down. The samples were assessed for mortality 5 days after infestation.

[11] = system: Tetranychus urticae (Two-Spotted Spider Mite); experiment: Activity against Tetranychus urticae: feeding/contact activity; conditions: foliar, 192 h, application rate of 200 ppm, bean leaf discs, mixed population (mobile stages), 8 days after infestation
Protocol: Example B11: Activity Against Tetranychus urticae (Two-Spotted Spider Mite): Feeding/Contact Activity
Bean leaf discs on agar in 24-well microtiter plates were sprayed with aqueous test solutions prepared from 10,000 ppm DMSO stock solutions. After drying the leaf discs were infested with a mite population of mixed ages. The samples were assessed for mortality on mixed population (mobile stages) 8 days after infestation.

[12] = system: Aedes aegypti (Yellow Fever Mosquito); experiment: Activity against Aedes aegypti; conditions: 200 ppm in ethanol, dry deposit in 12 well plates, adult females, after 48 h and/or 24 h
Protocol: Example B13: Activity Against Aedes aegypti (Yellow Fever Mosquito)
Test solutions, at an application rate of 200 ppm in ethanol, were applied to 12 well tissue culture plates. Once the deposits were dry, five, two to five day old adult female Aedes aegypti were added to each well, and sustained with a 10% sucrose solution in a cotton wool plug. Assessment of knockdown was made one hour after introduction, and mortality was assessed at 24 and 48 hours after introduction.

[13] = system: Frankliniella occidentalis (Western Flower Thrips); experiment: Activity against Frankliniella occidentalis: feeding/contact activity; conditions: foliar, 168 h, application rate of 200 ppm, sunflower leaf discs, population of mixed ages, 7 days after infestation
Protocol: Example B4: Activity Against Frankliniella occidentalis (Western Flower Thrips): Feeding/Contact Activity
Sunflower leaf discs were placed on agar in 24-well microtiter plates and sprayed with aqueous test solutions prepared from 10,000 DMSO stock solutions. After drying the leaf discs were infested with a Frankliniella population of mixed ages. The samples were assessed for mortality 7 days after infestation.

CCS(=O)(=O)c1cc2c(nc1-c1nc3cc(C(F)(F)F)ncc3n1C)CC(C)(C)O2 [Compound A59, 6-ethylsulfonyl-2,2-dimethyl-5-[3-methyl-6-(trifluoromethyl)imidazo[4,5-c]pyridin-2-yl]-3H-furo[3,2-b]pyridine]
≥ 80%: mortality at 200 ppm [1] | percent effect (mortality or growth inhibition) at 200 ppm [2] | percent effect (mortality or growth inhibition) at 200 ppm [3] | mortality at 200 ppm [4] | mortality at 24 ppm [5] | percent effect (mortality or growth inhibition) at 200 ppm [6] | mortality at 200 ppm [7] | percent effect (mortality, anti-feeding or growth inhibition) at 12.5 ppm [8] | mortality at 200 ppm [9]

CCS(=O)(=O)c1cc2ccccc2cc1-c1nc2cc(C(F)(F)F)ncc2n1C [Compound A24, 2-(3-ethylsulfonyl-2-naphthyl)-3-methyl-6-(trifluoromethyl)imidazo[4,5-c]pyridine]
≥ 80%: percent effect (mortality or growth inhibition) at 200 ppm [2] | percent effect (mortality or growth inhibition) at 200 ppm [3] | mortality at 200 ppm [4] | mortality at 12 ppm [10] | percent effect (mortality or growth inhibition) at 200 ppm [6] | mortality at 200 ppm [7] | percent effect (mortality, anti-feeding or growth inhibition) at 12.5 ppm [8] | mortality at 200 ppm [11] | pest or weed control at 200 ppm [12]

CCS(=O)(=O)c1cc2c(cc1-c1nc3cc(C(F)(F)F)ncc3n1C)nc(C(F)(F)F)n2C [Compound A9, 2-[6-ethylsulfonyl-1-methyl-2-(trifluoromethyl)benzimidazol-5-yl]-3-methyl-6-(trifluoromethyl)imidazo[4,5-c]pyridine]
≥ 80%: mortality at 200 ppm [1] | percent effect (mortality or growth inhibition) at 200 ppm [2] | percent effect (mortality or growth inhibition) at 200 ppm [3] | mortality at 200 ppm [13] | mortality at 200 ppm [4] | mortality at 24 ppm [5] | percent effect (mortality or growth inhibition) at 200 ppm [6] | mortality at 200 ppm [7] | percent effect (mortality, anti-feeding or growth inhibition) at 12.5 ppm [8] | mortality at 200 ppm [9] | pest or weed control at 200 ppm [12]

CCS(=O)(=O)c1cc2nc(C(F)(F)F)n(C)c2nc1-c1nc2cc(C(F)(F)F)ncc2n1C [Compound A32, 6-ethylsulfonyl-3-methyl-5-[3-methyl-6-(trifluoromethyl)imidazo[4,5-c]pyridin-2-yl]-2-(trifluoromethyl)imidazo[4,5-b]pyridine]
≥ 80%: mortality at 200 ppm [1] | percent effect (mortality or growth inhibition) at 200 ppm [2] | percent effect (mortality or growth inhibition) at 200 ppm [3] | mortality at 200 ppm [4] | mortality at 24 ppm [5] | percent effect (mortality or growth inhibition) at 200 ppm [6] | mortality at 200 ppm [7] | percent effect (mortality, anti-feeding or growth inhibition) at 12.5 ppm [8] | mortality at 200 ppm [9] | pest or weed control at 200 ppm [12]
